Experimental data reported in US20130040998A1, “FLUORINATED HDAC INHIBITORS AND USES THEREOF” (Dana-Farber Cancer Institute, Inc., priority 2010, published 2013).

Columns and labels:
[1] = system: class IIa HDACs (HDAC4, HDAC5, HDAC7, HDAC9); assay: HDAC inhibition assay, class IIa HDAC enzymes; format: biochemical, human
Description: (§1) The inventive compounds may be tested in any assay for HDAC inhibitor activity. In certain embodiments, the assay for determining the inhibitory effect of an inventive compound on an HDAC protein comprising: incubating the HDAC protein with a substrate of formula: […]
(§2) in the presence of an inventive compound; and determining the activity of the HDAC protein by monitoring the release of 7-amino-4-methylcoumarin after cleavage by trypsin.
(§3) In certain embodiments, the assay is performed in water. In other embodiments, the assay is performed in an organic solvent. In still other embodiments, the assay in performed in a buffer. In certain embodiments, the buffer is an assay buffer. In other embodiments, the assay buffer comprises HEPES, KCl, Tween-20, BSA, and TCEP. In further embodiments, the assay buffer is […] HEPES, 100 mM KCl, 0.001% Tween-20, 0.05% BSA, 200 µM TCEP, pH 7.4. In certain embodiments, the assay is performed at approximately pH 5.0-6.0. In certain embodiments, the assay is performed at approximately pH 5.0-9.0. In certain embodiments, the assay is performed at a pH optimum for an HDAC enzyme to function.

HDAC1-3 = assay: HDAC inhibition assay, HDAC1-3; format: biochemical, human; conditions: fluorinated MAZ1702 versus MAZ1704
Description: as §1, §2, §3

[2] = difference versus unsubstituted cinnamic hydroxamic acid; Dessolin et al. 1970; cited from earlier work

Row | SMILES | affinity for class IIa HDAC enzymes compared to MAZ1704 ([1]; FIG. 2 legend, in words) | binds fold better to class IIa enzymes ([1]; fluorinated MAZ1702 versus MAZ1704 (FIG. 2)) | fold increase in activity for HDAC1-3 (HDAC1-3) | fold increase in activity for class IIa enzymes ([1]; direct comparison with cinnamic hydroxamic acid) | pKa, units lower than unsubstituted cinammic hydroxamic acid [2]
1 | O=C(NO)/C(F)=C/c1ccccc1 [MAZ1702] | significantly increased affinity | 3.5-5 fold | 1-1.4 fold |  | 
2 | O=C(NO)C(F)=Cc1ccccc1 [α-fluoro cinnamic hydroxamic acid] |  |  |  | 5-10 fold | approximately 0.9 units
